Publication PMC12381739, “Druglike Molecular Degraders of the Oncogenic RNA-Binding Protein HuR” (JACS Au, 2025)

Experiments:
Bcl2 and FOXQ1 mRNA = test: mRNA RT-qPCR of Bcl2 and FOXQ1 in MCF-7 cells; assay type: cell-based, human
Experimental: MCF-7 cells were seeded into 12-well plates (∼150,000 cells per well) at 60–70% confluency incubated for 12 h. The cells were then treated with different synthesized compounds at the indicated concentrations or with vehicle control for 24 and 48 h. After treatment, total RNA was extracted using the QuickRNA Miniprep Kit (Zymo Research) according to the manufacturer’s protocol, including DNase I treatment. Reverse transcription was performed on 1 μg of total RNA using the qScript cDNA Synthesis Kit (Quantabio) following the manufacturer’s instructions. Approximately 30 ng of cDNA were used for each qPCR reaction, which was carried out using the Luna Universal qPCR Master Mix (New England BioLabs, cat# E3010G) on a CFX Opus 384 Real-Time PCR System. Relative expression levels of Bcl-2 and FOXQ1 were calculated by normalizing to GAPDH expression using the ΔΔCt method.

[1] = tested on: MCF-7 and MDA-MB-231 cells; test: Cell counting-proliferation assay; assay type: cell-based, human; conditions: compared to Binders 1 and 2, at 24 and 48 h
Experimental: MCF-7 and MDA-MB-231 cells were seeded in 96-well plates to 80% confluency and treated with synthesized compounds at eight concentrations (0.1 nM–100 μM) for 24 and 48 h. Cell proliferation was assessed using the Resazurin Assay Kit (Abcam, ab228554), where each sample was incubated with 1× WST-8/CCK8 solution for 1 h. After incubation, fluorescence was measured by absorbance at 460 nm using the Synergy H1 Hybrid Multi-Mode Microplate Reader (Biotek, Agilent). Cell proliferation was calculated as the percent decrease in fluorescence of treated cells compared to untreated controls. All experiments were performed in triplicate.

MCF-7 cells = test: Caspase-Glo 3/7 apoptosis assay; assay type: cell-based, human; conditions: MCF-7, 10 nM
Excerpt: To elucidate the decrease in cell viability observed, we evaluated the potential increase in apoptosis using the […] Caspase-Glo 3/7 assay system. Upon cell lysis, active caspases cleave a luminogenic substrate, releasing aminoluciferin, which is subsequently converted to light by luciferase. The intensity of the signal directly correlates with the levels of apoptosis. […] This destabilization reduces the levels of proteins essential for cancer cell survival, resulting in cumulative cellular stress, diminished proliferation, and enhanced cytotoxicity. […] This enhanced effect is likely due to the catalytic nature of the molecular glue degraders, offering promising potential for cancer treatment.
MCF-7 cells were seeded in 96-well plates to 80% confluency and treated with synthesized compounds at four concentrations (1 nM–1 μM) for 24 and 48 h. Cell apoptosis was analyzed using the Caspase-Glo 3/7 Assay System (Promega, G8090). Each sample was incubated with Caspase-Glo 3/7 solution for 1 h, followed by luminescence measurement. Luminescence was measured […] using the Synergy H1 Hybrid Multi-Mode Microplate Reader (Biotek, Agilent). Cell apoptosis was calculated as the percent increase in luminescence of treated cells compared to untreated controls. All experiments were performed in triplicate.

HuR [2] = target: T1, HuR (Homo sapiens, UniProt Q15717); test: Proteasome inhibitor (bortezomib, MG132) mechanistic validation of HuR degradation in MCF-7 cells; assay type: cell-based; set-up: endogenous in cells; host or cells: MCF-7; conditions: MCF-7, with bortezomib or MG132
T1 sequence (Q15717 whole entry): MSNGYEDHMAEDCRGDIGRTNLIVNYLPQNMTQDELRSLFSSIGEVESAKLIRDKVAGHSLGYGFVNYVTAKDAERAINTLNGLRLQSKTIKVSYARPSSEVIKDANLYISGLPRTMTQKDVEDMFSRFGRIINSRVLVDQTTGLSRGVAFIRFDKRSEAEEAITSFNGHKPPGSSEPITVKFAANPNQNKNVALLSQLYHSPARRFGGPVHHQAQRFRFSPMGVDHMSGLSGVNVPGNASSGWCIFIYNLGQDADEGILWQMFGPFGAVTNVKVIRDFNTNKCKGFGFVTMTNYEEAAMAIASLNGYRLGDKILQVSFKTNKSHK
Experimental: MCF-7 cells were seeded in 6-well plates at approximately 60% confluency and incubated for 12 h. The cells were then treated with 1 μM of the proteasome inhibitors Bortezomib (Thermo Fisher Scientific, CAS: 179324-69-7) and MG132 (Aaron Chemicals, CAS: 1211877-36-9). After treatment, the synthesized compounds were added at a concentration of 10 μM, and the cells were incubated for 5 h.

HuR [3] = target: T1, HuR; test: HuR western blot, dose-dependent treatment (Figure S7, cell line not stated); assay type: cell-based; set-up: endogenous in cells; host or cells: MCF-7 or MDA-MB-231 (not given); conditions: 48 h, normalized to vinculin
Experimental: MDA-MB-231 and MCF-7 cells were seeded in 6-well plates at approximately 60% confluency in complete growth medium and treated with synthesized compounds at the indicated concentrations or with vehicle for 24 h. Total protein was extracted using RIPA cell lysis buffer (BioPrep) containing a protease inhibitor, and protein concentration was measured using the BCA protein assay (Sigma-Aldrich) according to the manufacturer’s protocol. Approximately 30 μg of total protein were resolved on a 12% SDS-acrylamide gel and transferred to a PVDF membrane (Immobilon FL transfer membrane; Merck). The membrane was washed with 1× Tris-buffered saline (TBS) containing 0.1% (v/v) Tween-20 (TBST; Tris-base, pH 7.6, NaCl, and Tween-20) and blocked in 1× TBST containing 5% (w/v) BSA for 2 h at room temperature. The membrane was then incubated overnight at 4 °C with primary antibodies: a 1:1000 dilution of rabbit anti-ELAVL1/HuR (Cell Signaling Technology, #12582), a 1:1000 dilution of mouse anti-Bcl2 (Cell Signaling Technology, #15071), or a 1:10,000 dilution of rabbit anti-Vinculin (Cell Signaling Technology, #13901) in 1× TBST containing 5% (w/v) BSA. […] The fold change in the expression of the target proteins (HuR or Bcl2) was calculated by normalizing the band intensity to the Vinculin band intensity using ImageJ. […]

Question: What does the source list for `O=C1CCC(N2C(=O)c3cccc(NCc4cn(-c5ccc6sc(C(=O)O)cc6c5)nn4)c3C2=O)C(=O)N1` (stereo not shown) [PRO-HuR3]?
Answer: Bcl2 mRNA expression relative to lower concentrations (Bcl2 and FOXQ1 mRNA; MCF-7, 1 μM): increase in Bcl2 expression; Bcl2 and FOXQ1 mRNA expression (Bcl2 and FOXQ1 mRNA; MCF-7, concentrations ranging from 1 nM to 100 nM): decrease in the expression of both genes; cell proliferation [1]: significant decrease in cell proliferation; apoptosis (caspase 3/7) (MCF-7 cells): significant increase in apoptosis; degrader activity under 26S proteasome inhibition (HuR [2]): completely impaired; HuR protein level relative to UT (HuR [3]; 0.01 nM): 113%; HuR protein level relative to UT (HuR [3]; 0.1 nM): 108%
